Test results from patent US20260184708A1, “PYRIDAZINONES AND METHODS OF USE THEREOF” (GFB (ABC), LLC, priority 2017, published 2026).

Experiments:
Format in all cases: cell-based
[1] = molecular target: T1, TRPC5 (Homo sapiens, UniProt Q9UL62); assay: TRPC5 automated electrophysiology (Syncropatch - Spatch format); conditions: Table 6; HEK293 cells overexpressing TRPC5
T1 construct: expressed in transfected cells; host or cells: HEK 293
T1 sequence (Q9UL62 1-973): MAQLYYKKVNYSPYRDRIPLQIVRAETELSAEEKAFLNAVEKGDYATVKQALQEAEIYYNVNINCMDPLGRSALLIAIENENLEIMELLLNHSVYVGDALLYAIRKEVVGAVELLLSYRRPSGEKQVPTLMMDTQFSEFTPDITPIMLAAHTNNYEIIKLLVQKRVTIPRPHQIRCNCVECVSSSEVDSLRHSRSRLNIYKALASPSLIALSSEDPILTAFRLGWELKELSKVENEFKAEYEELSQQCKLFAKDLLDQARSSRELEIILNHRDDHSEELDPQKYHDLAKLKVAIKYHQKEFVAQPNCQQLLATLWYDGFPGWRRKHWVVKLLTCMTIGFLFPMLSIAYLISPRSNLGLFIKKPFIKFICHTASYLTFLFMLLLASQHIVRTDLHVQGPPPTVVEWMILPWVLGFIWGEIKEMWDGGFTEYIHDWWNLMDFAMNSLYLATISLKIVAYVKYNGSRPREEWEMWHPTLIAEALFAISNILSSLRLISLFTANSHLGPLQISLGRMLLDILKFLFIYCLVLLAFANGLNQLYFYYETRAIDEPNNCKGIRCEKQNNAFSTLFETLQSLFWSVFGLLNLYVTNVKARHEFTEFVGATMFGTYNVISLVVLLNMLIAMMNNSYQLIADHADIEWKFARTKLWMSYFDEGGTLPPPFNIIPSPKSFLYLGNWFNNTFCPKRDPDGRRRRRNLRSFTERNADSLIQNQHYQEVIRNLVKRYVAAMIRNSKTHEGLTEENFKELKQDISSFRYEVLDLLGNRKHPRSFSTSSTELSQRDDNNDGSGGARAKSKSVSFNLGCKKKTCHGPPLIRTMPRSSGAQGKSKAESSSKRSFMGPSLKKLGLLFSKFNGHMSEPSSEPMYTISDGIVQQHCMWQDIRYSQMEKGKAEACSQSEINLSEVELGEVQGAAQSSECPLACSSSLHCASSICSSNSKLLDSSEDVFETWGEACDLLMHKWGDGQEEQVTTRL
Description: The automated electrophysiological assay was carried out at room temperature. HEK-TRPC5 cells were cultured according to our standard operating procedures. Internal and external physiological solutions were freshly prepared prior to the assay. The free internal Ca2+ concentration was buffered to 1 μM according to the WCabuf software using 10 mMHEDTA. To monitor the ion currents, a voltage ramp from −100 mV to +80 mV, over 250 ms, was applied every 15 seconds, from a holding potential of −60 mV. To stabilize the inward and outward currents the voltage was kept steady at −100 mV and +80 mV for 20 ms. After recording for a minimum of 60 seconds control period, the activator (at 10, 15, 20 or 30 μM) was applied twice, before increasing concentrations of test compound (or vehicle) were applied to the cell. This was followed by a saturating concentration of the specific blocker ML 204 (100 μM). Graphs were plotted using the maximum outward current values obtained at +80 mV during the patch-clamp recordings. Data were normalized using the SyncroPatch384 equation Inorm=1−((Iconc−IFB)/(IRef−IFB)), where Iconc is the current amplitude at each concentration of agonist, IRef is the control current amplitude and IFB is the current in the presence of the saturating blocker ML204. Graphs were constrained between the maximum and minimum values. The series resistance (<15 MΩ) and quality of seals (>100 MΩ) were continuously monitored during the experiments. Data was analyzed using the Nanion Data Control384 software. EC/IC50 values were calculated using a least squares regression algorithm (Hill equation).

[2] = molecular target: T1, TRPC5; assay: TRPC5 automated patch clamp assay (Qpatch), current block after rosiglitazone stimulation; conditions: Table 6; HEK293 cells overexpressing TRPC5; read-out: TRPC5-QPatch IC50
Method in brief: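 HEK 293 cells expressing human TRPC5, whole-cell QPatch recording; 1 μM buffered free internal Ca2+, external pH 7.4. Ramps −100 to +100 mV over 300 ms every 10 s from −60 mV holding; channel activated by Rosiglitazone (30 uM) after ≥60 s control. IC50 from Hill fit.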

[3] = molecular target: T1, TRPC5; assay: TRPC5 fluorescence assay, membrane potential dye, flexstation (FLEX); conditions: Table 6; HEK293 cells overexpressing TRPC5
Description: HEK 293 cells expressing human TRPC5 cells were trypsinised, counted and seeded in black, clear-bottomed 96-well plates at a density of 50,000 cells per well and incubated overnight. Next day, the cells were loaded with membrane potential dye. Dye solution was made up according to the manufacturer's instructions in HEPES buffered Hank's balanced salt solution (HBSS). Dye solution (10 μL) was added to the wells and incubated at 37° C. for 1 hour. The test compounds and standard inhibitors were added to the wells and incubated at room temperature for 10 minutes. The plates were then placed in the flexstation and fluorescence monitored every 1.52 seconds. After 20 seconds, 10 μL of the appropriate standard agonist was added and the fluorescence monitored for 2 minutes at ex/emm: 530 nm/565 nm.

SMILES	IC50 [1] [nM]	IC50 [2] [nM]	IC50 [3] [nM]
N#Cc1cc(F)ccc1Cn1nnc2c1CCN(c1cn[nH]c(=O)c1Cl)C2	5000 to 10000	–	–
O=c1[nH]ncc(N2CCc3c(nnn3Cc3cccnc3C(F)F)C2)c1Cl	5000 to 10000	–	–
O=c1[nH]ncc(Cl)c1N1CCc2c(nc(C3CC3)n2Cc2ccccc2C(F)(F)F)C1	10000 to 500000	–	–
C[C@H]1Cc2c(nnn2Cc2ccccc2C(F)F)CN1c1cn[nH]c(=O)c1Cl	10000 to 500000	–	–
COc1cccc(Cn2nnc3c2CCN(c2cn[nH]c(=O)c2Cl)C3)c1C	1000 to 5000	–	–
CC[C@H](c1cncc(F)c1)n1cnc2c1CCN(c1cn[nH]c(=O)c1Cl)C2	1000 to 5000	–	–
CC1Cc2c(nnn2Cc2ccccc2C(F)F)CN1c1cn[nH]c(=O)c1Cl (stereo not drawn)	0.01 to 1000	–	–
N#Cc1ccccc1-n1cnc2c1CN(c1cn[nH]c(=O)c1C#N)CC2 [drawing 841]	–	1000 to 5000	0.01 to 1000
C[C@H](c1ccccc1)n1cnc2c1CCN(c1cn[nH]c(=O)c1Cl)C2 [drawing 842]	–	1000 to 5000	0.01 to 1000
O=c1[nH]ncc(N2CCc3c(ncn3Cc3ccc(F)cc3C(F)(F)F)C2)c1Cl [drawing 844]	–	0.01 to 1000	0.01 to 1000
O=c1[nH]ncc(N2CCc3ncn(-c4ccccc4C(F)(F)F)c3C2)c1Cl [drawing 847]	–	5000 to 10000	10000 to 500000
O=c1[nH]ncc(N2CCc3c(ncn3Cc3ccccc3C(F)(F)F)C2)c1Cl [drawing 850]	–	0.01 to 1000	0.01 to 1000
O=c1[nH]ncc(N2CCc3c(nnn3Cc3ccccc3C(F)(F)F)C2)c1Cl [drawing 859]	–	0.01 to 1000	0.01 to 1000
O=c1[nH]ncc(N2CCc3c(ncn3Cc3ccccc3C(F)(F)F)C2)c1Br [drawing 862]	–	0.01 to 1000	0.01 to 1000
O=c1[nH]ncc(N2CCc3c(cnn3Cc3ccc(F)cc3C(F)(F)F)C2)c1Cl [drawing 864]	–	0.01 to 1000	0.01 to 1000
O=c1[nH]ncc(N2CCc3c(ncn3-c3ccccc3C(F)(F)F)C2)c1Cl [drawing 871]	–	0.01 to 1000	0.01 to 1000
N#Cc1c(N2CCc3c(ncn3Cc3ccccc3C(F)(F)F)C2)cn[nH]c1=O [drawing 873]	–	0.01 to 1000	0.01 to 1000
O=c1[nH]ncc(N2CCc3c(ncn3Cc3ccccc3)C2)c1Cl [drawing 880]	–	1000 to 5000	0.01 to 1000
O=c1[nH]ncc(N2CCc3c(ncn3Cc3ccc(F)cc3C(F)F)C2)c1Cl [drawing 892]	–	0.01 to 1000	0.01 to 1000
CCc1ncccc1Cn1nnc2c1CCN(c1cn[nH]c(=O)c1C#N)C2 [drawing 895]	–	5000 to 10000	10000 to 500000
CCc1ncccc1Cn1nnc2c1CCN(c1cn[nH]c(=O)c1C#N)C2 [drawing 918]	1000 to 5000	–	–
CC1c2nnn(Cc3ccccc3C(F)F)c2CCN1c1cn[nH]c(=O)c1Cl (stereo not drawn) [drawing 923]	10000 to 500000	–	–
CC1c2nnn(Cc3ccccc3C(F)F)c2CCN1c1cn[nH]c(=O)c1Cl (stereo not drawn) [drawing 924]	0.01 to 1000	–	–
